Data set [1] deals with Il17a and Il17f (Il17a/f). Nature of the data set: RT-qPCR of Il17a and Il17f in EL-4-mRORγt cells. It counts as cell-based, murine. As to conditions: indicated concentrations, 20–24 h, then 4.5-h PMA and ionomycin. As for the experimental part: For RT-qPCR assays, 5 × 10^5 EL-4-mRORγt cells were seeded in 500 μL complete DMEM per well of a 24-well plate and treated with the vehicle control, the positive control, or the compounds of interest. After incubation for 20–24 h, cells were stimulated with Cell Activation Cocktail (PMA: 40.5 μM, ionomycin: 669.3 μM; 500X) for 4.5 h. Afterward, total RNA was isolated using the innuPREP RNA Mini Kit 2.0 according to the manufacturer’s instructions. According to the manufacturer’s instructions, 1 μg RNA was reverse-transcribed into cDNA using the High-Capacity cDNA Reverse Transcription Kit. RT-qPCR was performed using the Luna Universal qPCR Master Mix on a LightCycler 480 (Roche Diagnostics, Rotkreuz, Switzerland) according to the manufacturer’s instructions. […] Livak’s 2−ΔΔCt method was employed to determine the expression levels of RORγ target genes. This involved normalizing the target gene expression to the expression levels of the control gene 18s, followed by further normalization to the vehicle control.

The test system of a further data set is EL-4-mRORγt cells. Nature of the data set: Resazurin conversion assay in EL-4-mRORγt cells. It counts as cell-based, murine. The note with it: 5 μM, 20-24 h. As to the method:
To check the metabolic activity of cells correlating with cell viability, cells were treated with the vehicle control (0.1% DMSO), digitonin as the positive control for cytotoxicity at 20 μg/mL (HEK293 cells) or 50 μg/mL (EL-4-mRORγt cells), or the compounds of interest at 5 μM for 18 h (HEK293 cells) or 20–24 h (EL-4-mRORγt cells). The next day, the medium was carefully removed and replaced with stripped DMEM without phenol red, containing 10 μg/mL resazurin sodium salt. Cells were incubated for 5 h before RFU values were measured at λem = 590 nm using a spectrophotometer. Cell viability was calculated as follows: Cell viability(%)=100×RFU value after compound treatment/RFU value after vehicle control treatment Cytotoxicity was defined as cell viability under 70% according to the ISO 10993–5 guidelines. Cell viability <90% is explicitly stated in the respective figure.

The next data set addresses T1, Gal4-hRORγ (Homo sapiens, UniProt P51449).
T1 construct: Encodes for a hRORγ-LBD:Gal4-DBD fusion protein; expressed in transfected cells; host or cells: HEK293
T1 sequence (P51449 269-508 limits assumed): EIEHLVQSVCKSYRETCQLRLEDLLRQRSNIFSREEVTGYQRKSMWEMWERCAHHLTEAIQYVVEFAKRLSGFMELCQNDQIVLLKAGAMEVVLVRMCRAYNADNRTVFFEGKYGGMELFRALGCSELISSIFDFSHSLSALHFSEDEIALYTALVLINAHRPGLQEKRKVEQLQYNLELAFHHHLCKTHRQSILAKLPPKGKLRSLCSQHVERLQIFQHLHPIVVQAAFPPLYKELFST
Nature of the data set: Gal4-RORγ mammalian one-hybrid luciferase assay. The note with it: HEK293 cells. It counts as cell-based. As for the experimental part:
For luciferase assays, 8 × 10^6 HEK293 cells were seeded on 150 mm cell culture dishes and incubated for 5 h. Afterward, cells were transfected with the calcium phosphate coprecipitation method using 5 μg of the nuclear receptor (Gal4-hRORγ or full-length human RORγ), 5 μg of a luciferase reporter (pTK-MH100 × 4-LUC for Gal4-hRORγ experiments or RORE-LUC for full-length human RORγ experiments) and 3 μg eGFP-N1 (for assessing transfection efficiency) plasmid DNA and incubated overnight. […] The medium was changed the following day, and cells were further incubated for another four to 5 h before trypsin/EDTA was added to detach them from the dishes. […] RLUs were normalized to relative fluorescence units (RFU) to account for differences in cell number and transfection efficiency and then normalized to the vehicle control. Results are expressed as fold activation relative to the vehicle control.
Concentration–response data were analyzed in GraphPad Prism version 10 by three-parameter logistic nonlinear regression, with the Hill slope constrained to a theoretical value of −1.0. An IC50 value was determined only for compounds yielding a statistically reliable fit. […] In these cases, only the maximal inhibition achieved at the highest tested concentration (I max(%) at 5 μM) is reported, calculated as follows: Imax(%)=(1−Bottom/Top)×100 (“top” = baseline activity measured at the lowest concentration, “bottom” = residual activity observed at the highest concentration, corresponding to the maximal inhibitory effect).

For a further data set, the target named is T2, Gal4-RORγ H479L (Homo sapiens, UniProt P51449, H479L).
T2 sequence (P51449 269-508 H479L limits assumed): T1 sequence (P51449 269-508 limits assumed) with H211L
Put plainly: Gal4-RORγ H479L mutant luciferase assay. The note with it: 5 μM.

Positions count from the first letter of the chain named.

As a reminder, the IC50 is the point on the concentration scale where inhibition reaches its midpoint.

Protocol for Gal4-RORγ H479L: Gal4-hRORγ H323A and H479L mutants were generated using the QuikChange Lightning Site-Directed Mutagenesis Kit according to the manufacturer’s instructions. Briefly, 10 ng template DNA (Gal4-hRORγ) was PCR-amplified with the respective mutagenic forward and reverse primers listed in Table S3, which were designed using the QuikChange Primer Design tool (https://www.agilent.com/store/primerDesignProgram.jsp). […] Two μL of the PCR product were then transformed into XL1-Blue competent E. coli according to a protocol provided by NEB. […] After centrifuging the main culture at 5691g for 10 min, the supernatant was decanted, and plasmid preparation was performed using the PureLink HiPure Plasmid Midiprep Kit according to the manufacturer’s instructions. DNA yields and purities were checked using a NanoDrop 2000c (Thermo Fisher Scientific, Waltham, MA, USA).

`C=C(C)[C@@H]1CC[C@]2(C(=O)O)CC[C@]3(C)[C@H](CC[C@@H]4[C@@]5(C)C/C(=C/c6ccco6)C(=O)C(C)(C)[C@@H]5CC[C@]43C)[C@@H]12` [Compound 15, (2Z)-2-(2-furanylmethylene)-3-oxolup-20(29)-en-28-oic acid]: in data set [1], the Il17a expression entry is reported as “failed to affect Il17a expression levels” and the Il17f expression result is “slight yet concentration-dependent decrease”. In addition, the “Cytotoxic effects, resazurin conversion assay” value in the data set on EL-4-mRORγt cells is listed as “no cytotoxic effects”. In addition, at Gal4-hRORγ (3 μM), the “Activity in Gal4-RORγ luciferase assay (initial screen)” value is “new inverse agonist of RORγ”. The “Imax(%) at 5 μM, Gal4-RORγ luciferase assay” value at Gal4-hRORγ (5 μM) came out at 76%. The midpoint of inhibition against Gal4-hRORγ (18 h treatment, up to 5 μM), the IC50, lay at 0.4 µM. Further, at Gal4-RORγ H479L, the “Activity on Gal4-RORγ H479L vs WT” value was “loss of activity”.

Source of the values: PMC12379159 (Journal of Natural Products, 2025).
